“And” between values parts separate entries of the source, which are not always exact repeats. Equal values may be shown once. Read-outs that look alike come from different tables or passages of the source.
Columns and labels:
in vivo = settings: male, SD, rat, iv, i.v. 2 mg 25/kg; for AUC(0-inf): AUC0-∞
hERG channels = target: T1, hERG channels (Homo sapiens, UniProt Q12809); assay: hERG cardiac toxicity assay (automated QPatch, CHO cells expressing hERG); type: cell-based; settings: QPatch whole-cell recording
T1 construct: expressed in transfected cells; host or cells: CHO cells, stably transfected
Method: After intravenous administration, blood samples (0.2 mL) were collected at designated time points (0, 5, 15, 30, 45 min, 1, 2, 3, 5, 8, 12 and 24 h) from the eye venous sinus of the rats. The blood samples were centrifuged at 14800 rpm for 10 min to obtain the plasma fraction. The plasma samples were kept frozen (−20 °C) until analysis by a liquid chromatography-tandem mass spectrometry (LC-MS/MS).
Table S3. Pharmacokinetic parameters after intravenous administration of 25 to SD rats at […]
Pharmacokinetic Parameters 25 (Intravenous Injection of 2 mg 25/kg) Rat 1 Rat 2 a Rat 3 Mean ± SD […]
1 (intravenous injection of 2mg 25/kg) Rat 1 Rat 2 a Rat 3 Mean ± SD […]
a Rat 2: parts of the sample of 25 was injected into the subcutaneous tissues which lead to the uncertainty of the plasma concentration, so this rat was not incorporated into the calculation of pharmacokinetic parameters; b Cmax: maximum plasma concentration taken directly from measured values; c Tmax: time to reach Cmax; d AUC0-∞: integrated area under plasma concentration vs. time curve from time 0 to time infinity; e MRT: mean residence time; f t1/2: half-life. g N: parts of the data below the LLOQ, that result in the uncertainty of the pharmacokinetic parameters. hERG Cardiac Toxicity Assay of Compound 25 […]
After achieving break-in (whole-cell) configuration, the cells were recorded for 120 s to assess current stability. […]

[1] = rats, intravenous injection of 25 (2 mg∙kg^−1)
HCV Con1-1b replicon = assay: HCV Con1-1b subgenomic replicon assay; type: cell-based; settings: Hepatitis C virus; Table 4; read-out: Anti-HCV Activity EC50 ± SD Replicon Assay Con1-1b
HCV H77-1a replicon = assay: HCV H77-1a subgenomic replicon assay; type: cell-based; settings: Hepatitis C virus; Table 4; read-out: Anti-HCV Activity EC50 ± SD Replicon Assay H77-1a
[2] = PBS pH 7.4, 37 °C
HCV JFH1-2a replicon = assay: HCV JFH1-2a subgenomic replicon assay (Renilla luciferase, Huh 7.5.1 replicon cells); type: cell-based; settings: Hepatitis C virus, Table 4, read-out: Anti-HCV Activity EC50 ± SD Replicon Assay JFH1-2a
[3] = test system: JFH1-2a virus (wild type); assay: HCV virus assay, JFH1-2a wild type, Huh 7.5.1 cells; settings: Hepatitis C virus
[4] = SD rats, Mean ± SD (Rat 1 and 3)

T1 sequence (Q12809 whole entry): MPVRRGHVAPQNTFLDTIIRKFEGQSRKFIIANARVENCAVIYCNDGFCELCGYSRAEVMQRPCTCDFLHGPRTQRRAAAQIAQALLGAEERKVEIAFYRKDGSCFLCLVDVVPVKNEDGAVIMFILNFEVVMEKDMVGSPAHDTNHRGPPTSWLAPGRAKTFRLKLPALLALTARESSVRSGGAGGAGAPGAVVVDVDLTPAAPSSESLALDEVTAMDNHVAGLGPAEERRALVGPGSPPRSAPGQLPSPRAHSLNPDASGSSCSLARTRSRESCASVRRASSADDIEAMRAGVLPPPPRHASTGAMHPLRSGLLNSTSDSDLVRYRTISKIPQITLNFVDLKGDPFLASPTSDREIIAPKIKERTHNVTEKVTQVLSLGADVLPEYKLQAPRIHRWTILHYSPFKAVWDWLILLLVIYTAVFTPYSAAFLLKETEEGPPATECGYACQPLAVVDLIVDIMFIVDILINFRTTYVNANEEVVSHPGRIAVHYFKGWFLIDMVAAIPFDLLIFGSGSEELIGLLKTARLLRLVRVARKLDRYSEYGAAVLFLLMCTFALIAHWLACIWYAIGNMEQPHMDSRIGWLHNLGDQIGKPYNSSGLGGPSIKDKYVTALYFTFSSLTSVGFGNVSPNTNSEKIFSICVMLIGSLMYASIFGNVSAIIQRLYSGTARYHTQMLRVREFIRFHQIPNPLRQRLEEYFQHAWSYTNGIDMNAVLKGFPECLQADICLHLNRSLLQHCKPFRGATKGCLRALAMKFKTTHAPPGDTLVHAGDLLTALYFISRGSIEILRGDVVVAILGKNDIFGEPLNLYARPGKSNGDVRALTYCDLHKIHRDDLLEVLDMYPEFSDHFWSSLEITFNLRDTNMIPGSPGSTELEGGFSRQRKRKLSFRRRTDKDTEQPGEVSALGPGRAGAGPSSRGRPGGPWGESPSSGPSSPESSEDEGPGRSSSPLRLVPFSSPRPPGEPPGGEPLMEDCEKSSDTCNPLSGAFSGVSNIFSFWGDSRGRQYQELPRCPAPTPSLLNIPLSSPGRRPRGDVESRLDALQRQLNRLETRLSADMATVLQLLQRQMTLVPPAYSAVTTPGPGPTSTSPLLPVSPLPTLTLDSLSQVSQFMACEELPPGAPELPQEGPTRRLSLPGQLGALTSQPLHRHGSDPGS

Work on CCCCCCCC(=O)Oc1cccc(O)c1C(=O)NC(=O)NC1c2ccccc2-c2ccccc21 [Compound 25, 1-(2-Hydroxy-6-n-Octanoyloxybenzoyl)-3-(9H-fluoren-9-yl)-urea] yielded an AUC(0-inf) (in vivo; SD rat, Rat 1) of 5.66 ng·h/mL, an AUC(0-inf) (in vivo; SD rat, Rat 3) of 5.3 ng·h/mL and an AUC(0-inf) (in vivo; [4]) of 5.48 ± 0.25 ng·h/mL. For the same molecule, the Cmax (in vivo; SD rat, Rat 1) was 13.4 ng/mL, the Cmax (in vivo; SD rat, Rat 3) was 27.5 ng/mL and the Cmax (in vivo; [4]) was 20.5 ± 9.99 ng/mL. It also gave an MRT (in vivo; SD rat, Rat 1) of 2.42 h, an MRT (in vivo; SD rat, Rat 3) of 0.21 h and an MRT (in vivo; [4]) of 1.3 ± 1.6 h. For the same molecule, the half-life (in vivo; t1/2, SD rat, Rat 1) was 5.4 h, the half-life (in vivo; t1/2, SD rat, Rat 3) was 0.12 h and the half-life (in vivo; t1/2, SD rats, Mean ± SD (Rat 1 and 3)) was 2.76 ± 3.73 h. For the same molecule, the IC50 (hERG channels) was > 15000 nM, the “plasma concentration after 5 min (mean ± SD)” value [1] was 20.47 ± 9.99 ng/mL and the EC50 (HCV Con1-1b replicon) was 810 ± 240 nM. For the same molecule, the EC50 (HCV H77-1a replicon) was 850 ± 210 nM, the “25 Content” value ([2]; 0 h) was 100% and the “25 Content” value ([2]; 0.5 h) was 99.79%. The “25 Content” value ([2]; 1.0 h) was 100.13%, the “25 Content” value ([2]; 1.5 h) was 99.76% and the “25 Content” value ([2]; 2.0 h) was 100.72%. The “25 Content” value ([2]; 3.0 h) was 100.67%, the “25 Content” value ([2]; 3.5 h) was 100.93% and the “25 Content” value ([2]; 4.0 h) was 100.74%. For the same molecule, the “25 Content” value ([2]; 5.0 h) was 100.21%, the “25 Content” value ([2]; 6.0 h) was 100.24% and the “25 Content” value ([2]; 7.0 h) was 100.34%. The “25 Content” value ([2]; 8.0 h) was 100.30%, the “25 Content” value ([2]; 9.0 h) was 99.29% and the “25 Content” value ([2]; 10.0 h) was 98.88%. The “25 Content” value ([2]; 11.0 h) was 98.43%, the “25 Content” value ([2]; 12.0 h) was 98.65% and 98.6% and the EC50 (HCV JFH1-2a replicon) was 450 ± 80 nM. It also gave an EC50 ([3]; Huh-7.5.1, read-out: Anti-HCV Activity (Virus Assay) EC50 ± SD JFH1-2a (Wild Type)) of 270 ± 90 nM, an EC50 ([3]; Huh-7.5.1, read-out: Anti-HCV Activity EC50 ± SD Virus Assay JFH1-2a) of 190 ± 80 nM and a melting point of 184 to 189 °C.
